According to patent publication US20160008490A1, “METAL CHELATE COMPOUNDS FOR BINDING TO THE PLATELET SPECIFIC GLYCOPROTEIN IIB/IIIA” (BAYER PHARMA AKTIENGESELLSCHAFT, priority 2013, published 2016):

Molecular target: T1, human GP IIb/IIIa receptor (Homo sapiens, UniProt P05106+P08514)
T1 construct: human GPIIb/IIIa purified from human platelets was immobilized on a 96-well solid plate; purchased Enzyme Research Laboratories Inc. (South Bend, Ind.); host or cells: human platelets (natural source, detergent-solubilised)
T1 sequence (P08514 32-887 limits assumed): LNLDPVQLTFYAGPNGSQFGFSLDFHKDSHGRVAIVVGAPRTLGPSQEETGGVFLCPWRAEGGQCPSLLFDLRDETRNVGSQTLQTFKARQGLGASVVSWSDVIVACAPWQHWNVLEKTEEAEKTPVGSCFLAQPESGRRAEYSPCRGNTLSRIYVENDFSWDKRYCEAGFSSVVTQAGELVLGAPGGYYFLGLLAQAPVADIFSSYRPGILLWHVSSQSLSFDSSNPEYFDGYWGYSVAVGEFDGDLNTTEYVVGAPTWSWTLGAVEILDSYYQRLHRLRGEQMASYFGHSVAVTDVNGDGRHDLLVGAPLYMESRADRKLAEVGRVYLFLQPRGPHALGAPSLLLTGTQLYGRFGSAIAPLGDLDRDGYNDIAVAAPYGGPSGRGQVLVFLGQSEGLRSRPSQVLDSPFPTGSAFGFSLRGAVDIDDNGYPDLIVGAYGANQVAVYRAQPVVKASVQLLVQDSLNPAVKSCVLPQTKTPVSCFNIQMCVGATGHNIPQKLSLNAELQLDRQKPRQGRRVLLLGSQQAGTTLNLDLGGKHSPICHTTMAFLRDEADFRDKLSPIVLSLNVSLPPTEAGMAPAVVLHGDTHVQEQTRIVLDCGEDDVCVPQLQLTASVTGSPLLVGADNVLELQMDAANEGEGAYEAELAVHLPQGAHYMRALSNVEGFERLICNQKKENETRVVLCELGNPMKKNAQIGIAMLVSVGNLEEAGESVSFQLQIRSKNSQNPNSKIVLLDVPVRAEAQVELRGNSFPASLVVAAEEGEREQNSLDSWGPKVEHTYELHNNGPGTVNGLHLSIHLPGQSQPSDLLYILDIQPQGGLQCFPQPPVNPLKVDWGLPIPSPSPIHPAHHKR
T1 sequence (P08514 891-1039 partner limits assumed): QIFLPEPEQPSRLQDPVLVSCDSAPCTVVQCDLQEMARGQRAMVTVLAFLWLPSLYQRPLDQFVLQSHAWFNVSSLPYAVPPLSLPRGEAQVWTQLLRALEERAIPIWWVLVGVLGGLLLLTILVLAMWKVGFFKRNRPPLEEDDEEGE
T1 sequence (P05106 27-788): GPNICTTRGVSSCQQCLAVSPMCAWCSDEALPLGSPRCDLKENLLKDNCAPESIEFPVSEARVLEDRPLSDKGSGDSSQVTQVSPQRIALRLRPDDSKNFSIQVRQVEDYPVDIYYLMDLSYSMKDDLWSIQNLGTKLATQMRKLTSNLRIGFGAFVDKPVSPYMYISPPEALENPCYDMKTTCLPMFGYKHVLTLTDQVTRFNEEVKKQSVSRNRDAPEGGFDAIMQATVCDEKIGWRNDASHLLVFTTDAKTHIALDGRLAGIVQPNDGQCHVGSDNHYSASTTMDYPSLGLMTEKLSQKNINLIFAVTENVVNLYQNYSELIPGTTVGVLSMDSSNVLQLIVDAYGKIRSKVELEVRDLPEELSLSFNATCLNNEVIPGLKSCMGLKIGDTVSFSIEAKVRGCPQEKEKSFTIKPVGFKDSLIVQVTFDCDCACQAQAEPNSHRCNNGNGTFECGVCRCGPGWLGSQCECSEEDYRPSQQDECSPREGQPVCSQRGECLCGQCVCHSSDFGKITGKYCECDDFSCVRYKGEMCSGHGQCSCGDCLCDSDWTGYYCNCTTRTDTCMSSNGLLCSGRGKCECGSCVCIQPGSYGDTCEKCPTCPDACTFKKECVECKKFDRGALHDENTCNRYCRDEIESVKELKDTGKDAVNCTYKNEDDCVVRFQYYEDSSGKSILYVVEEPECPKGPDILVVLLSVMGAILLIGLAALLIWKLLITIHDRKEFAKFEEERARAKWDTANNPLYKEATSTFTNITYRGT
Experiment: GPIIb/IIIa affinity assay (displacement of tritiated reference compound from immobilized receptor)
Format: binding
Settings: purified human GPIIb/IIIa, 60 nM 3H-labeled reference compound, 1 hour at room temperature
Protocol: Affinity assay: In the first step human GPIIb/IIIa purified from human platelets was immobilized on a 96-well solid plate. After 48 hours the plates were washed and the unspecific binding sites were blocked with Roti®-Block. 2. In the next step, the plates were simultaneously incubated with a tritium labeled known GPIIb/IIIa binder (^3H) mixed with increasing concentrations of the novel compounds (inhibitor). The higher the affinity of the inhibitor, the lower the bound fraction of the tritiated known GPIIb/IIIa binder (^3H) was. The fraction of tritiated compound (^3H), which is not displaced by inhibitor, was measured in a microplate scintillation counter.
Purified human glycoprotein IIb/IIIa (20 mM Tris-HCl, 0.1 M NaCl, 0.1% Triton X-100, 1 mM CaCl2, 0.05% NaN3, 50% Glycerol, pH 7.4) was purchased from Enzyme Research Laboratories Inc. (South Bend, Ind.). The GPIIb/IIIa receptor was diluted in phosphate-buffered saline (Dulbecco's Phosphate Buffered Saline (D-PBS (+)) with calcium and magnesium, GIBCO®, Invitrogen) with 0.01% bovine serum albumin (albumin from bovine serum—lyophilized powder, 96%, Sigma).
The GPIIb/IIIa receptor was immobilized 48 hours at least (100 μL per well, 48 to maximum 96 hours) on a 96-well solid plate (Immuno Plate MaxiSorp™, Nunc, Roskilde, Denmark) at 277 K to 280 K and at a concentration of 0.1 μg per well to 1 μg per well. As negative control one row of the plate (n=8) was incubated just with 2% bovine serum albumin (200 μL per well, albumin from bovine serum—lyophilized powder, ≧96%, Sigma, diluted in D-PBS (+)).
After washing three times with the wash buffer (230 μL per well, Dulbecco's Phosphate Buffered Saline (D-PBS (−)) contains no calcium or magnesium, GIBCO®, Invitrogen) residual exposed plastic and unspecific binding sites were blocked by incubating the plate with a special blocking solution (200 μL per well, Roti®-Block, Car Roth GmbH Co KG, Karlsruhe) containing 2% bovine serum albumin (Albumin from bovine serum—lyophilized powder, ≧96%, Sigma) 1 hour at room temperature.
After washing three times with the wash buffer 50 μL of tritiated reference compound (60 nM, ^3H-labeled compound) and 50 μL of novel compound (inhibitor) were simultaneously added to each well and incubated for 1 hour at room temperature. Several concentrations of each novel inhibitor (0.1, 1, 2, 5, 10, 20 50, 100, 200, 500, 1000, 2000, 5000, 10000 and 20000 nM) were investigated. At each concentration of inhibitor a fourfold determination was performed.
The maximum value of tritiated reference compound was determined without addition of inhibitor (n=8). To exclude unspecific binding of ^3H— reference compound wells without glycoprotein receptors were used as negative controls (n=12, identically treated just without GPIIb/IIIa receptors).
After one hour the plate was washed three times with phosphate-buffered saline (200 μL per well, Dulbecco's Phosphate Buffered Saline (D-PBS (+)), GIBCO®, Invitrogen). Following 140 μL of liquid scintillation cocktail (MicroScint™ 40 aqueous, Perkin Elmer) was added to each well. After 15 min at room temperature the plates were measured at the microplate scintillation counter (TopCount NXT v2.13, Perkin Elmer, Packard Instrument Company).
In the first step human glycoprotein IIb/IIIa, which is purified from human platelets, was immobilized on a 96-well solid plate. After 48 hours at least the plates were washed and the unspecific binding sites were blocked with Roti®-Block. In the next step, the plates were simultaneously incubated with a tritium labeled reference compound and the novel small molecule compound (inhibitor). The higher the affinity of the inhibitor, the smaller is the bound fraction of reference compound. The fraction of tritiated reference compound, which is not displaced by inhibitor, was measured at a microplate scintillation counter. The higher the affinity of the inhibitor, the smaller is the bound fraction of tritium-labeled reference compound. […]

CC(C(=O)NCC(=O)NC[C@H](NC(=O)CNC(=O)C(C)N1CCN(CC(=O)O)CCN(CC(=O)O)CCN(CC(=O)O)CC1)C(=O)NC[C@H](NC(=O)[C@H](CNC(=O)CNC(=O)C(C)N1CCN(CC(=O)O)CCN(CC(=O)O)CCN(CC(=O)O)CC1)NC(=O)CNC(=O)C(C)N1CCN(CC(=O)O)CCN(CC(=O)O)CCN(CC(=O)O)CC1)C(=O)NCCCCc1cccc(C#Cc2cncc([C@H](CC(=O)O)NC(=O)[C@@H]3CCCN(C(=O)CCC4CCNCC4)C3)c2)c1)N1CCN(CC(=O)O)CCN(CC(=O)O)CCN(CC(=O)O)CC1 (stereo partly shown) [Example 8]
IC50: 21 nM
